Data as given in patent publication US20210236465A1, “METHODS AND COMPOSITIONS FOR TREATING HETEROTOPIC OSSIFICATION” (President and Fellows of Harvard College, priority 2019, published 2021).

Columns and labels:
[1] = test system: Gnas^f/f mice after Ad-Cre injection (POH mouse model); assay: POH mouse model: Gnas^f/f mice with subcutaneous Ad-Cre injection, ectopic and endogenous bone by μCT
[2] = test system: Gnas^-/- SMP cells; assay: Osteoblast differentiation (ALP) of Gnas^-/- SMP cells in osteogenic medium; format: cell-based, mouse
Description: (§1) For ALP staining, cells were fixed in 4% PFA for 20 minutes, washed with PBS for three times, then stained with 1-Step NBT/BCIP (Thermo, 34042) for 30 minutes and washed by PBS. There were three biological replicates for each group. ALP staining was quantified as previously described. Cells were scraped into a radioimmunoprecipitation assay (RIPA) buffer (containing 50 mM Tris-HCl pH 7.5, 150 mM NaCl, 5% Glycerol, 1 mM EDTA, 1% NP-40, 0.1% SDS and 0.25% Na-deoxycholate) and centrifuged. The enzymatic alkaline phosphatase activity in the supernatant of cell lysate was assayed by measuring the chromogenic p-nitrophenol formed from the enzymatic hydrolysis of p-nitrophenyl phosphate (the substrate) by light absorbance at 405 nm. The alkaline phosphatase activity was normalized to total protein, as measured by BCA protein assay. All experiments were performed in triplicates and means and standard deviations were calculated.
Subcutaneous mesenchymal progenitor (SMP) cells are potential osteoprogenitor cells within the subcutaneous connective tissue which can be induced to become osteoblast cells and adipocytes. Subcutaneous skin tissue containing adipose deposits was removed under sterile conditions and washed in PBS supplemented with 100 U/mL penicillin and 100 μg/mL streptomycin on ice. The tissue was then minced, and digested with 1 mg/ml collagenase type I and 0.5% Trypsin in 0.1% BSA for 70 minutes at 37° C. The digested tissue was centrifuged at 500 g for 10 min and the pellet was carefully collected after aspirating off the floating fat depots. After a second centrifugation at 500 g for 10 min, the cellular pellet was filtered through a 100 μm mesh filter to remove debris.
(§2) Cre recombinase adenovirus from Berk (˜10^12 pfu/ml) were diluted 1:50 in 100 μl PBS solution and injected into the subcutaneous region of the limbs of 4 weeks old mice. Six weeks, 3 months or 8 months after injection, the limbs were harvested from euthanized mice and fixed in 4% PFA overnight. Ectopic bone formation was analyzed by μCT and skeletal preparation. The Cre recombinase or GFP adenovirus (˜10^10 pfu/ml) was diluted 1:2000 to infect cells in vitro. Four hours later, fresh medium was added and 24 hours later, the medium was changed.

[3] = test system: WT mice with Achilles tendon puncture (ATP); assay: Achilles tendon puncture (ATP) injury-induced HO mouse model, μCT; format: in vivo; conditions: for HO formation (ectopic bone volume): from the day of ATP, vs vehicle
Description: For ATP mouse model, 4-week-old male mice were anesthetized. A 27-gauge needle was punctured into the Achilles tendon body from the lateral aspect percutaneously and this process was repeated six times at different parts of Achilles tendon body for each mouse. For sham operation, the needle was punctured through the skin without touching the Achilles tendons.
(§3) Mice were fixed overnight in 4% PFA and transferred to 70% ethanol, then analyzed by high-resolution μCT using a deskop μCT (Scanco Medical) according to recommended guidelines. The scanner was set at a voltage of 55 kV and a resolution of 12.3 μm per pixel. The images were reconstructed, analyzed for HO bone volume and endogenous bone mass. Briefly cortical bone parameters and cancellous bone microarchitecture from tibia were determined using a 7-μm isotropic voxel size. For ectopic bone, bone volume was measured. For cancellous bone, bone volume fraction (bone volume per tissue volume [BV/TV]) (percentage), trabecular number (Tb.N) (per millimeter), trabecular thickness (Tb.Th) (millimeter), trabecular separation (Tb.Sp) (millimeter) was analyzed. For cortical bone, cortical area fraction (Ct. BV/TV) (percentage), cortical bone density (Ct. BMD) (mgHA/cm3) were evaluated.

[4] = test system: ACVR1^R206H; ScxCre mice (FOP model); assay: FOP mouse model ScxCre; ACVR1^R206H, HO volume by μCT; format: in vivo; conditions: VP 4 mg/kg/d IP, 5 days per week, starting at 6 weeks of age for 8 weeks
Description: The ACVR1^FlExR206H mice conditionally express ACVR1^R206H/+ knock-in alleles, were kindly provided by Dr. Aris Economides (Regeneron Pharmaceuticals, Inc.), mated with ScxCre mice, to yield ScxCre; ACVR1^FlEx206H/+ mice, which represent a FOP mouse model that develops spontaneous HO of tendons, ligaments, and joints. These mice were treated with Verteporfin (VP) (4 mg/kg/d intraperitoneal (IP) injection, 5 days per week) or an equal volume of PBS for 8 weeks, starting at 6 weeks of age. […]
as §3, with “The scanner was set at a voltage of 55 kV and a resolution of 12.3 μm per pixel.” left out

[5] = test system: Shh protein; assay: Shh protein levels by Western blotting in Gnas^f/f SMPs after Ad-Cre infection; format: cell-based, mouse; conditions: 200 ng/ml for 7 days after Ad-Cre infection (FIG. 4B)
Description: as §2
Tissue or cell lysates were prepared using a lysis buffer [20 mM Tris (pH 7.4), 150 mM NaCl, 1% Tri-ton X-100, 1 mM EDTA, 1 mM EGTA, 2.5 mM sodium pyrophosphate, 1 mM β-glycerophosphate, 1 mM sodium orthovanadate] or RIPA buffer (Santa Cruz Biotechnology), respectively, containing protease inhibitor mixture (Roche). Total cell lysates were analyzed by Western blotting according to standard procedures.

[6] = test system: ACVR1^Q207D/+ SMPs; assay: ACVR1^Q207D/+ SMPs with Ad-Cre infection: ALP activity and QRT-PCR; format: cell-based, mouse; conditions: VP 200 ng/ml for 7 days
Description: as §1
The skin was removed from the hindlimb covering the tibia and the subcutaneous tissue area (5 mm (1)×5 mm (w)×4 mm (h)) where the Ad-Cre were locally injected was isolated. Subcutaneous connective tissue and some muscle cells surrounding the ectopic bone would have been included. Total RNA was isolated first with Trizol (Invitrogen). […] PCR product accumulation was detected using Sybr green (Invitrogen; Platinum SYBR Green qPCR SuperMix-UDG). […]

[7] = Gnas^-/- SMP cells cultured with the inhibitors for 7 days (FIG. 11G)

Row | Compound | HO (ectopic bone volume, μCT) ([1]; CT7001 10 mg/kg gavage every other day after Ad-Cre injection) | osteoblast differentiation (ALP) [2, 7] | HO (ectopic bone volume, μCT) ([1]; THZ1 10 mg/kg IP injection 5 days a week after Ad-Cre injection) | HO formation (ectopic bone volume) ([3]; THZ1 (1 mM) applied on the skin of the trauma area) | endogenous bone mass ([1]; 3 months of non-stop VP treatment (IP 2.5 mg/kg)) | endogenous tibia bone mass ([1]; 6 weeks after VP IP injection (2.5 mg/kg, 5 days per week), treated vs untreated) | HO after VP withdrawal ([1]; VP IP 2.5 mg/kg for 6 weeks from Ad-Cre injection, then no treatment, harvested 3 months after Ad-Cre) | already formed HO (ectopic bone volume) ([1]; VP IP 2.5 mg/kg started 6 weeks after Ad-Cre injection, 5 times per week for 6 weeks, vs untreated) | HO (ectopic bone volume, μCT) ([1]; VP IP injection (2.5 mg/kg) 5 days a week for 6 weeks, immediately after Ad-Cre injection) | HO (ectopic bone volume, μCT) ([1]; VP topically applied (0.2 mg/ml; 200 μg/ml) 5 days per week for 6 weeks, immediately after Ad-Cre injection) | tendon, ligament, and intra-articular HO (HO volume) [4] | osteoblast differentiation (ALP) ([2]; 200 ng/ml for 7 days after Ad-Cre infection (FIG. 4A)) | Shh protein levels [5] | endogenous bone mass (tibia bones) ([3]; VP IP 2.5 mg/kg 5 days per week, VP treated vs control) | HO formation (ectopic bone volume) ([3]; VP higher dose 200 μg/ml applied on the skin of the trauma area) | HO formation (ectopic bone volume) ([3]; VP low dose 20 μg/ml applied on the skin of the trauma area) | osteoblast differentiation (ALP) [6] | expression of Yap and Hh target genes, Shh and Ihh ([6]; QRT-PCR)
1 | CC(C)c1cnn2c(NCc3ccccc3)cc(NC[C@H]3CCNC[C@@H]3O)nc12 [CT7001] | reduced HO | reduced | – | – | – | – | – | – | – | – | – | – | – | – | – | – | – | –
2 | CN(C)C/C=C/C(=O)Nc1ccc(C(=O)Nc2cccc(Nc3ncc(Cl)c(-c4c[nH]c5ccccc45)n3)c2)cc1 [THZ1] | – | reduced | reduced HO | completely blocked | – | – | – | – | – | – | – | – | – | – | – | – | – | –
3 | Verteporfin [VP] | – | reduced | – | – | not reduced | no significant change | significantly reduced | obviously reduced | more effective HO blockage | HO reduction | significantly reduced | decreased | decreased | no significant difference | completely blocked | reduced | reduced | reduced
